From patent publication US20080280837A1, “Biologically Active Compounds with Anti-Angiogenic Properties” (priority 2004, published 2008)
Like-named read-outs stand apart in the source and are kept apart here.

Columns and labels:
SSTR-3 = biological target: T1, SSTR-3 (Homo sapiens, UniProt P32745); assay: Radioligand binding screen against somatostatin subtype SSTR-3
T1 construct: expressed in transfected cells
Procedure: Receptor membrane preparations containing the desired cloned receptor (for example cloned human somatostatin receptor subtype 5, SSTR5) and radio-labeled ligand (for example 3-[^125I]iodotyrosyl^11 Somatostatin-14)) were diluted at the concentration required for testing and according to the specific parameters associated with the selected receptor-ligand combination, including receptor Bmax, ligand Kd and any other parameters necessary to optimize the experimental conditions. When tested for competition activity to the reference ligand, “compound 1” was mixed with membrane suspension and the radiolabeled reference ligand (with or without an excess of cold ligand to the receptor for determination of non-specific binding) and incubated at the temperature required by internal standard operating procedures. Following incubation, the binding reaction was stopped by the addition of ice-cold washing buffer and filtered on appropriate filters, which are then counted. Data analysis and curve-fitting was performed with XLfit (IDBS).
10 mM solutions of test compounds in 100% DMSO were prepared. ˜160 μl was used for each dilution (20 μl/well in triplicate).
A 1.25 mM assay stock was prepared by making a 1:8 dilution of the 10 mM solution. (To 30 μL of the 10 mM solution was added 210 μL milli-Q H2O. A 1:5 dilution series in milli-Q H2O was then prepared.
In primary screening experiments compounds were tested in duplicate for a particular concentration.

[1] = biological target: T2, Human SST5 somatostatin receptor (SSTR5) (Homo sapiens, UniProt P35346); assay: Filter plate assay for SST5 receptor, displacement of [125I]SST-14; format: binding
T2 construct: expressed in transfected cells; host or cells: HEK-293 EBNA
T2 sequence (P35346 whole entry): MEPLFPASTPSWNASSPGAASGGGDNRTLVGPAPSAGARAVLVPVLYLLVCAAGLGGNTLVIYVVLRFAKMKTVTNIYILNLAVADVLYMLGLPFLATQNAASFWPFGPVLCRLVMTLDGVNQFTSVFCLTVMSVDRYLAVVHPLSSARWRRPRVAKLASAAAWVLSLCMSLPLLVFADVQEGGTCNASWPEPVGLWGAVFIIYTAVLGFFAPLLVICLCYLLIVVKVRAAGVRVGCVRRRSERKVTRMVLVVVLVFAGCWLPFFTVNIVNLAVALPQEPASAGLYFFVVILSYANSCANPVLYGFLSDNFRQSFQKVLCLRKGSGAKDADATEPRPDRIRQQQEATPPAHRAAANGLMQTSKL
Outline: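 HEK-293 EBNA membranes expressing human SST5 (5.5 μg) incubated 60 min at 25 °C with 4 nM [125I]SST-14 and compound in pH 7.5 Tris/EGTA/MgCl2/sucrose buffer. Bound radioactivity collected on PEI-coated glass fiber filters and counted; triplicate 1:5 dilution series from 125 μM, non-specific binding with excess cold ligand.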

[2] = In vivo pharmacokinetic evaluation after i.v. and p.o. administration to rats; details: rat, plasma, po, 25 mg/Kg, Rat 3, PO; calculated using AUC0-480; read-out: BA (oral bioavailability)
[3] = as above; set-up: species or system rat; details: for clearance: read-out: Cltotal (total plasma clearance); for Vd: read-out: VdB (volume of distribution during the elimination phase); for bioavailability: calculated using AUC0-480, read-out: BA (oral bioavailability)
Procedure: Intravenous infusion of “compound 1” (2 mg/Kg) over 5 minutes to two rats and arterial blood sampled up to 24 hours.
Oral administration of “compound 1” (25 mg/Kg as HPMC suspension) via oral gavage to two rats and arterial blood sampled up to 24 hours.
Plasma concentrations of “compound 1” determined by MS (LOQ<0.01 μM)
CLtotal=total plasma clearance after IV administration Vdβ=volume of distribution during the elimination phase after IV administration BA=oral bioavailability AUCIV=area under the plasma concentration versus time profile from time zero to infinity after IV administration AUCoral=area under the plasma concentration versus time profile from time zero to infinity after oral administration β=terminal elimination rate constant after IV administration

[4] = Human hepatocyte microsomal degradation half-life; format: in vitro ADME
Procedure: the final concentration of ACN in the microsomal incubation was 1%,
samples were incubated in a water bath at 37° C., and
45 μL aliquots were taken over 2 hr, quenched with ACN, placed on ice for 30 min to precipitate proteins and assayed by LC/MS/MS using either the Quattro Ultima Pt, LCT or Q-T of instruments.

HUVEC tube formation = assay: Matrigel tube formation assay; format: cell-based, human; details: Homo sapiens, 22 h
Procedure: HUVEC (Clonetics) were plated in 96 well plates in EGM-2 media (Clonetics) at 2.5 to 3×10^4 cells per well. Cells of less than 6 passages were used in all studies. Wells were precoated with 50 μL growth factor containing Matrigel (Becton Dickinson). HUVEC were allowed to form tubes by incubation at 37° C. in 5% CO2 for 22 hrs. In test wells compound was added in the desired concentration. Photographic images of the wells ×4 magnification were used to determine size of the tubes, length of tubes and number of junctions using image analysis software.

[5] = ActiveTox suite of toxicity assays (LDH release, proliferation, ATP content, caspase 3/7, cyp1A induction, P-glycoprotein inhibition, cyp3A induction via PXR or GR); format: cell-based; details: 10 and 100 μM, quadruplicate
Procedure: Compounds were analyzed in eight separate assays at concentrations of 10 and 100 μM in quadruplicate. Compounds were assayed tar toxicity via LDH release, inhibition of proliferation, ATP content, caspase 3/7 activation. Compounds were assayed for induction of cyp1A and P-glycoprotein inhibition. Compounds were also assayed for cyp3A induction under conditions which favor activation via the pregnane receptor (PXR) or the glucorticord receptor (GR). Appropriate positive and negative controls were included in each case.

[6] = normalized IC50: lowest IC50 for a compound = 1
[7] = rat, plasma, iv, 2 mg/Kg, IV, Mean ± SD of two rats
[8] = rat, plasma, iv, 2 mg/Kg, Rat 1, IV
[9] = rat, plasma, iv, 2 mg/Kg, Rat 2, IV
[10] = predicted from human microsomal degradation

T1 sequence (P32745 whole entry): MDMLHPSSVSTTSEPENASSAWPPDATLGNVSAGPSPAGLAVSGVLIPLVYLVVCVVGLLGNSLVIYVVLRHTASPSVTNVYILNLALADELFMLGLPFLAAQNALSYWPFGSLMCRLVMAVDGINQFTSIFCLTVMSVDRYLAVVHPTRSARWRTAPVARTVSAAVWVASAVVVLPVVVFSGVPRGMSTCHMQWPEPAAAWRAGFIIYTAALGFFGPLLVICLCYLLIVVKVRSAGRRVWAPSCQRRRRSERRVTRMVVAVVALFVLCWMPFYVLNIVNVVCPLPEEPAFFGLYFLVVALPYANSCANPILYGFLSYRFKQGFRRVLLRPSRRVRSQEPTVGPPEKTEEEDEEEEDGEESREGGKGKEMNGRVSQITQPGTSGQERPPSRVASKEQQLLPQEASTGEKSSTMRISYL

IC50 (SSTR-3; concentration required to displace 50% of the competitive radioligand, read-out: IC50 SSTR3): 8.5 µM | selectivity SSTR3 (SSTR-3; [6]): 26.4 | Hillslope SSTR3 (SSTR-3; slope of binding curve): 1.04 | IC50 ([1]; concentration required to displace 50% of the competitive radioligand, read-out: IC50 SSTR5): 0.322 µM | selectivity SSTR5 [1, 6]: 1 | Hillslope SSTR5 ([1]; slope of binding curve): 0.71 | bioavailability [2]: 4.95% | VdB (volume of distribution during the elimination phase) ([3]; IV, Mean ± SD of two rats): 3.29 ± 0.56 L/kg | Tmax ([3]; Rat 4, PO 25 mg/Kg): 20 min | Tmax ([3]; plasma, Rat 3, PO 25 mg/Kg, read-out: Tmax (converted)): 20 min | Tmax ([3]; rat, plasma, 25 mg/Kg, PO, mean of two rats, read-out: Tmax (converted)): 20 min | clearance [3, 7]: 8.2 mL/min/kg | Vd [3, 7]: 3.3 L/kg | half-life ([3]; rat, plasma, iv, 2 mg/Kg, IV, Mean ± SD of two rats, read-out: t1/2 (elimination half-life) (converted)): ~276 min | Cmax ([3]; rat, plasma, iv, 2 mg/Kg, Mean ± SD of two rats): 31.9 ± 2.27 µM | Cmax ([3]; rat, plasma, iv, 2 mg/Kg, Rat 1, IV infusion 2 mg/Kg over 5 minutes): 30.3 µM | clearance [3, 8]: 7.53 mL/min/kg | Vd [3, 8]: 2.9 L/kg | half-life ([3]; rat, plasma, iv, 2 mg/Kg, Rat 1, IV, read-out: t1/2 (converted)): 267 min | Cmax ([3]; rat, plasma, iv, 2 mg/Kg, Rat 2, IV infusion 2 mg/Kg over 5 minutes): 33.5 µM | clearance [3, 9]: 8.86 mL/min/kg | Vd [3, 9]: 3.69 L/kg | half-life ([3]; rat, plasma, iv, 2 mg/Kg, Rat 2, IV, read-out: t1/2 (converted)): 286 min | Cmax ([3]; rat, plasma, po, 25 mg/Kg, Mean ± SD of two rats): 4.95 ± 2.84 µM | bioavailability ([3]; rat, plasma, po, 25 mg/Kg, PO, Mean ± SD of two rats): ~5.2% | bioavailability ([3]; rat, plasma, po, 25 mg/Kg, Rat 4, PO): 5.38% | Cmax ([3]; rat, plasma, po, 25 mg/kg, Rat 3, PO 25 mg/Kg HPMC suspension): 6.95 µM | Cmax ([3]; rat, plasma, po, 25 mg/kg, Rat 4, PO 25 mg/Kg HPMC suspension): 2.94 µM | CLint scaled ([4]; human hepatocyte microsomes, pH 7.4, predicted from human microsomal degradation): 62.2 mL/min/kg | half-life ([4]; human hepatocyte microsomes, human microsomal incubation, 37° C., pH 7.4, read-out: Degradation t1/2): 32.2 min | Predicted CLblood [4, 10]: 15.5 mL/min/kg | Predicted EH [4, 10]: 0.75
SMILES: COC[C@H]1O[C@H](OCCc2ccccc2)[C@H](NC(=O)CCCN)[C@@H](OCc2ccc3ccccc3c2)[C@@H]1O [Compound 1]
EC50 (HUVEC tube formation): 250 µM | Effects in the eight ActiveTox assays [5]: no statistical effects
